Entries after “also recorded” stand apart in the source; their conditions may differ.
How the values were obtained:
hepatitis B = assay: Example Eleven: patient with chronic hepatitis B infection; type: in vivo, human; conditions: 5000 mg i.v., after thirty days
Description: After thirty days, their bilirubin fell to 3.0 and other liver enzymes were reduced by 25 percent or more.

[1] = tested on: giant platelets and histiocytes; assay: Giant platelets and histiocytes on peripheral smear; type: in vivo, animals; conditions: blood / peripheral smear
Description: The amphoteric zwitterion compounds may be employed as active ingredients with other active ingredients, as well as other components and carriers typically used in pharmaceutical compositions; such as, but not limited to: buffers, stabilizers, dyes, antioxidants, dispersing agents, fillers, surfactants, silicones, bulking agents, pigments, salts, human or animal (natural or synthetic) cells and cellular components, antibiotics, drugs, vitamins, amino acids, proteins, serum and various other compounds and combinations thereof in varying amounts.

Herpes Zoster = assay: Example Nine: patient with painful Herpes Zoster; type: in vivo, human; conditions: 1000 mg i.v. daily
Protocol: A person with painful Herpes Zoster unresponsive to conventional treatment was given 1000 mg intravenously of zwitterionic piperazine daily.

[2] = tested on: bone marrow / extramedullary hematopoiesis; assay: Bone marrow and extramedullary hematopoiesis, in vivo tests; design: species or system dogs and humans
Protocol: Further, the zwitterionic compounds reduce the mean inhibitory concentration (MIC) of susceptible […] in culture (in vitro) and enhances antibiotic activity in vivo. The zwitterionic compound may be used alone or with a carrier, such as sterile water or a saline solution. Enhancement and inducement of extramedullary hematopoiesis has been found in amounts of HEPES administered in an amount of about 18-20 mg/kilograms or greater for e.g. 40 mg/kg of body weight in dogs with daily intravenous injections over a defined time period of 1-2 weeks.

[3] = change of pKa per ° C.; cited from earlier work
[4] = tested on: serum alkaline phosphatase; assay: Example Six: serum alkaline phosphatase in healthy canines; type: in vivo, canine; conditions: up to 500 mg/kg, five canines
Protocol: Five healthy canines were administered up to 500 mg/kg of HEPES.

[5] = ADA: data of Schwarzenbach et al. (1955); cited from earlier work
[6] = Example Fourteen: patient with ventricular irritability; type: in vivo, human; conditions: 3000 mg orally for seven days; baseline 4-6 per minute
Protocol: A person with ventricular irritability, 4-6 premature ventricular contractions per minute (PVCs), was not controlled with Prancetyl, Quinidine, or beta blockade. They were taking no medicines and was started on 3000 mg zwitterionic piperazine orally for seven days. At the end of seven days, the patient had only occasional PVC (1 every 10 minutes).

[7] = tested on: acute hymphocytic leukemia (ALL); assay: Example Sixteen: patient with acute lymphocytic leukemia in blast crisis; type: in vivo, human; conditions: for Hemoglobin (Hgb): pre-infusion 10.5; for Blasts: pre-infusion 45%; for Platelets: pre-infusion 31,000; for White Blood Cells (WBC): pre-infusion 38,000
Description: A person presented with acute hymphocytic leukemia (ALL).
They were started on zwitterionic piperazine therapy (HEPES).
Her baseline laboratory data was obtained following a blood transfusion before starting the HEPES;

[8] = Observations in HEPES-treated dogs; type: in vivo
[9] = ADA: data of Schwarzenbach et al. (1955); cited from earlier work; remark: listed apart in the source
cancer = assay: Treatment of cancer patients with HEPES alone; type: in vivo, human; conditions: 300 mg/kg to 1000 mg/kg daily
[10] = ADA: data of Schwarzenbach et al. (1955); cited from earlier work; remark: listed apart in the source
[11] = Antibiotic efficacy in vivo
HIV = assay: Example Ten: patient with HIV infection and HIV associated polyneuropathy; type: in vivo; conditions: 5000 mg i.v. daily, after thirty days
Protocol: A person with documented HIV infection had HIV associated polyneuropathy. They could not raise their legs without assistance. They were given 5000 mg intravenously of zwitterionic piperazine (HEPES) daily for thirty days. […] Their cluster determinates had risen and sensation and proprioception were improved.

[12] = Example Eight: patient with organophosphate induced polyneuropathy; type: in vivo, human
Protocol: A person with organophosphate induced polyneuropathy (such as found in Agent Orange toxicity and/or Gulf War Syndrome) had significant numbness in both legs, decreased sensation in both hands, and decreased proprioception was given 8 mg/kg orally of zwitterionic piperazine (HEPES) for two weeks.

[13] = tested on: bone marrow / extramedullary hematopoiesis; assay: Example Seven: bone marrow and liver biopsy in healthy beagle dogs; type: in vivo; conditions: 18 mg/kg i.v. one week, then 40 mg/kg one week
Protocol: Five healthy beagle dogs (males and females) were given 18 mg/kg intravenously of zwitterionic piperazine compound (HEPES) for one week. The dose was increased to 40 mg/kg for one week. […] This is also consistent with immune stimulating effect.

[14] = Treatment of rheumatoid arthritis patients with HEPES alone; type: in vivo, human; conditions: 300 mg/kg to 1000 mg/kg daily
Protocol: To date, more than twenty-five patients have been treated with 300 mg/kg to 1000 mg/kg HEPES daily (no other agents or additional compositions).

alkaline phosphatase = assay: Decrease of alkaline phosphatase in mammals; type: in vivo
Description: It is discovered that zwitterionic compounds, such as HEPES, decrease the production of alkaline phosphatase in mammals.

[15] = ADA: data of Schwarzenbach et al. (1955); cited from earlier work; remark: listed apart in the source
[16] = intravenous and oral application
[17] = 13.0 mg/kg I.V. increased to 80 mg/kg I.V.

O=S(=O)(O)CCN1CCN(CCO)CC1 [HEPES, N-2 Hydroxyethylpiperazine-N'-2 Ethane Sulfonic Acid]
reduction of other liver enzymes (hepatitis B): ≥ 25% | bilirubin level (hepatitis B; baseline 5.0): 3.0 | giant platelets and histiocytes [1]: production of giant platelets and histiocytes; also recorded: produces giant platelets and histiocytes in blood | pain (Herpes Zoster; second day): the pain had diminished, so that other analgesia was not required | lesions (Herpes Zoster; seventh day): the lesions had healed | pain (Herpes Zoster; seventh day): no pain at all | lesions (Herpes Zoster; third day): the lesions had crusted and were clearly healing | minimal effective dose ([2]; Canis lupus familiaris, iv, dogs, daily i.v., 1-2 weeks, "or greater", read-out: amount of HEPES giving enhancement and inducement of extramedullary hematopoiesis): 18 to 20 mg/kg | extramedullary hematopoiesis [2, 16]: induce extramedullary hematopoiesis in patients | hypercellular bone marrow [2, 16]: induce hypercellular bone marrow | αpKa /° C. [3]: -0.014 | serum alkaline phosphatase [4]: not detected by standard laboratory methods in all canines | Metal-Buffer Binding Constants Log KM, Cu^2+ [5]: Negl | premature ventricular contractions (PVC) [6]: 1 every 10 minutes | blast crisis [7, 17]: cessation of the blasts crisis | platelet destruction [7, 17]: Platelet destruction has ceased | Hemoglobin (Hgb) ([7]; Day 3 of HEPES treatment): 8.5 g/dL | Blasts ([7]; Day 3 of HEPES treatment): 45% | Platelets ([7]; Day 3 of HEPES treatment): 14,000 | White Blood Cells (WBC) ([7]; Day 3 of HEPES treatment): 53,000 | Hemoglobin (Hgb) ([7]; Day 7 of HEPES treatment): 11.6 g/dL | Blasts ([7]; Day 7 of HEPES treatment): 5.0% | Platelets ([7]; Day 7 of HEPES treatment): 17,000 | White Blood Cells (WBC) ([7]; Day 7 of HEPES treatment): 6,300 | behaviour following injections ([8]; all dogs): all dogs became calm following injections | hematomas at the injection sites ([8]; all treated dogs): rapid resolution of hematomas at the injection sites | diuresis ([8]; certain dosages): marked diuresis at certain dosages | vascular integrity ([8]; treated groups): strong evidence of improved vascular integrity | respiratory infections ([8]; while being treated, many in untreated group did): no animals in the treated group had any respiratory infections while being treated | Metal-Buffer Binding Constants Log KM, Ca^2+ [9]: Negl | decrease in tumor volume and/or tumor activity (cancer; all patients with cancer): 25%-50% | cancer pain response (cancer; all patients with cancer pain): All patients with cancer pain have responded with pain reduction | Metal-Buffer Binding Constants Log KM, Mg^2+ [10]: Negl | antibiotic efficacy in vivo [11]: enhanced the antibiotic efficacy in vivo | Total viral load determined by PCR (HIV): decreased | ability to raise legs (HIV): could raise their legs without assistance | cluster determinates (HIV): had risen | sensation and proprioception (HIV): improved | myelin integrity / organic phosphate induced polyneuropathy ([12]; 8 mg/kg orally): reversed the effect of organic phosphate induced polyneuropathy in the patient and restored myelin integrity | sensation and proprioception ([12]; 8 mg/kg orally, end of two weeks): sensation and proprioception had returned | sensation and proprioception after reinstatement ([12]; two weeks after reinstatement): sensation and proprioception were again restored | symptoms after stopping the medicine ([12]; two weeks after stop): symptoms returned in two weeks | circulating histiocytes and giant platelets ([13]; all animals): increase in circulating histiocytes and giant platelets | bone marrow biopsy ([13]; all dogs): the bone marrow became hypercellular | liver biopsy (extramedullary hematopoiesis) ([13]; all dogs): presence of megakaryocyte production consistent with induced extramedullary hematopoiesis | reduction in disease activity [14]: 25%-50% | fall of baseline alkaline phosphatase levels (alkaline phosphatase; in excess of 100 mg/kg to 500 mg/kg or greater): fall by a factor of two or greater | alkaline phosphatase measurability (alkaline phosphatase; in excess of 100 mg/kg to 500 mg/kg or greater, some cases): not measurable by standard laboratory methods | concentration at which decrease of alkaline phosphatase appears to start (alkaline phosphatase; mammals): approximately 12 mg/kg | Metal-Buffer Binding Constants Log KM, Mn^2+ [15]: Negl
